Where “and” joins values, the source holds several entries; their conditions need not be identical. Equal values may be shown once. Inconclusive results and toxic doses are left out.
System: CD2F1 mice, L1210 leukemia ip, survival T/C
Experiment: NCI In Vivo Anticancer Drug Screen. Data for tumor model L1210 Leukemia (intraperitoneal) in CD2F1 (CDF1) mice
Conditions: higher = longer survival
Summary of the method: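 Mice carrying a transplanted tumor received test compound or vehicle alone. The value is the measurement in the treated group divided by that in the vehicle-treated control group.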

[1] = endpoint: mean survival time, dose: 100.0 mg/kg/injection, schedule: Q01DX001 (ip), vehicle: saline with Tween-80
[2] = endpoint: mean survival time, dose: 200.0 mg/kg/injection, schedule: Q01DX001 (ip), vehicle: saline with Tween-80
[3] = endpoint: mean survival time, dose: 400.0 mg/kg/injection, schedule: Q01DX001 (ip), vehicle: saline with Tween-80
[4] = endpoint: mean survival time, dose: 100.0 mg/kg/injection, schedule: Q01DX009 (ip), vehicle: saline with Tween-80
[5] = endpoint: mean survival time, dose: 200.0 mg/kg/injection, schedule: Q01DX009 (ip), vehicle: saline with Tween-80
[6] = endpoint: mean survival time, dose: 400.0 mg/kg/injection, schedule: Q01DX009 (ip), vehicle: saline with Tween-80
[7] = endpoint: mean survival time, dose: 12.5 mg/kg/injection, schedule: Q04DX002 (ip), vehicle: saline with Tween-80
[8] = endpoint: mean survival time, dose: 25.0 mg/kg/injection, schedule: Q04DX002 (ip), vehicle: saline with Tween-80
[9] = endpoint: mean survival time, dose: 50.0 mg/kg/injection, schedule: Q04DX002 (ip), vehicle: saline with Tween-80
[10] = endpoint: mean survival time, dose: 100.0 mg/kg/injection, schedule: Q04DX003 (ip), vehicle: saline with Tween-80
[11] = endpoint: mean survival time, dose: 200.0 mg/kg/injection, schedule: Q04DX003 (ip), vehicle: saline with Tween-80
[12] = endpoint: mean survival time, dose: 400.0 mg/kg/injection, schedule: Q04DX003 (ip), vehicle: saline with Tween-80

With [C-]#[O+].[Cl][Sn]([Cl])[Cl].[Cl][Sn]([Cl])[Cl].[Pt].c1ccc([PH+](c2ccccc2)c2ccccc2)cc1.c1ccc([PH+](c2ccccc2)c2ccccc2)cc1 the T/C (endpoint: median survival time, dose: 3.12 mg/kg/injection, schedule: Q04DX003 (ip), vehicle: saline with Tween-80) was 108 % of control, the T/C (endpoint: median survival time, dose: 6.25 mg/kg/injection, schedule: Q04DX003 (ip), vehicle: saline with Tween-80) was 106 % of control and the T/C (endpoint: median survival time, dose: 12.5 mg/kg/injection, schedule: Q04DX003 (ip), vehicle: saline with Tween-80) was 110 % of control. The T/C (endpoint: median survival time, dose: 25.0 mg/kg/injection, schedule: Q04DX003 (ip), vehicle: saline with Tween-80) was 113 % of control, the T/C (endpoint: median survival time, dose: 50.0 mg/kg/injection, schedule: Q04DX003 (ip), vehicle: saline with Tween-80) was 110 % of control and the T/C (endpoint: median survival time, dose: 100.0 mg/kg/injection, schedule: Q04DX003 (ip), vehicle: saline with Tween-80) was 112 % of control. The T/C (endpoint: median survival time, dose: 200.0 mg/kg/injection, schedule: Q04DX003 (ip), vehicle: saline with Tween-80) was 108 % of control.

With Nc1nc(C=O)nc2c1ncn2C1OC(CO)C(O)C1O (configuration not stated) the T/C (endpoint: median survival time, dose: 25.0 mg/kg/injection, schedule: Q01DX005 (ip), vehicle: water) was 101 % of control, the T/C (endpoint: median survival time, dose: 50.0 mg/kg/injection, schedule: Q01DX005 (ip), vehicle: water) was 117 % of control and the T/C (endpoint: median survival time, dose: 100.0 mg/kg/injection, schedule: Q01DX005 (ip), vehicle: water) was 117 % of control.

For O=S(=O)(OCCCCCCOS(=O)(=O)c1cccnc1)c1cccnc1, the T/C (endpoint: mean survival time, dose: 10.0 mg/kg/injection, schedule: Q04DX002 (ip), vehicle: saline with Tween-80) was 107 % of control.

COc1c(Cl)c(=O)oc2cc(C)c(Cl)c(C)c12 was tested, and the T/C [1] was 93 % of control, the T/C [2] was 96 % of control and the T/C [3] was 96 % of control.

For O=NN(CCCl)C(=O)Oc1ccc(OC(=O)N(CCCl)N=O)cc1, the T/C (endpoint: median survival time, dose: 3.12 mg/kg/injection, schedule: Q01DX009 (ip), vehicle: Klucel (hydroxypropylcellulose) (HPC)) was 104 % of control, the T/C (endpoint: median survival time, dose: 6.25 mg/kg/injection, schedule: Q01DX009 (ip), vehicle: Klucel (hydroxypropylcellulose) (HPC)) was 114 % of control and the T/C (endpoint: median survival time, dose: 12.5 mg/kg/injection, schedule: Q01DX009 (ip), vehicle: Klucel (hydroxypropylcellulose) (HPC)) was 118 % of control. For the same compound, the T/C (endpoint: median survival time, dose: 25.0 mg/kg/injection, schedule: Q01DX009 (ip), vehicle: Klucel (hydroxypropylcellulose) (HPC)) was 113 % of control and the T/C (endpoint: median survival time, dose: 50.0 mg/kg/injection, schedule: Q01DX009 (ip), vehicle: Klucel (hydroxypropylcellulose) (HPC)) was 93 % of control.

For CC(=O)[O][Hg][CH]1CCCCC1O (configuration not stated), the T/C (endpoint: mean survival time, dose: 3.13 mg/kg/injection, schedule: Q01DX009 (ip), vehicle: saline + alcohol) was 98 % of control and the T/C (endpoint: mean survival time, dose: 6.25 mg/kg/injection, schedule: Q01DX009 (ip), vehicle: saline + alcohol) was 108 % of control.

O=C(OCC1OC(n2cnc(=O)[nH]c2=O)C(OC(=O)c2ccccc2)C1OC(=O)c1ccccc1)c1ccccc1 (configuration not stated) was tested, and the T/C (endpoint: mean survival time, dose: 1.25 mg/kg/injection, schedule: Q04DX003 (ip), vehicle: saline) was 96 % of control, the T/C (endpoint: mean survival time, dose: 2.5 mg/kg/injection, schedule: Q04DX003 (ip), vehicle: saline) was 101 % of control and the T/C (endpoint: mean survival time, dose: 5.0 mg/kg/injection, schedule: Q04DX003 (ip), vehicle: saline) was 98 % of control. The T/C (endpoint: mean survival time, dose: 10.0 mg/kg/injection, schedule: Q04DX003 (ip), vehicle: saline) was 101 % of control, the T/C (endpoint: mean survival time, dose: 20.0 mg/kg/injection, schedule: Q04DX003 (ip), vehicle: saline) was 98 % of control and the T/C (endpoint: mean survival time, dose: 40.0 mg/kg/injection, schedule: Q04DX003 (ip), vehicle: saline) was 98 % of control.

With COC(OC)c1ccc(Cl)nc1 the T/C [1] was 98 % of control, the T/C [4] was 96 % of control and the T/C [2] was 101 % of control. The T/C [5] was 94 % of control, the T/C [3] was 101 % of control and the T/C [6] was 92 % of control.

CCC12CCCN3CCc4c(n(c5ccccc45)C(O)(C(=O)OC)C1)C32 (configuration not stated) was tested, and the T/C (endpoint: mean survival time, dose: 5.0 mg/kg/injection, schedule: Q01DX001 (ip), vehicle: saline) was 108 % of control, the T/C (endpoint: mean survival time, dose: 10.0 mg/kg/injection, schedule: Q01DX001 (ip), vehicle: saline) was 101 % of control and the T/C (endpoint: mean survival time, dose: 20.0 mg/kg/injection, schedule: Q01DX001 (ip), vehicle: saline) was 102 % of control. For the same compound, the T/C (endpoint: mean survival time, dose: 40.0 mg/kg/injection, schedule: Q01DX001 (ip), vehicle: saline) was 101 % of control.

With [Cl][Hg][c]1ccc2ccccc2c1 the T/C [7] was 90 % of control, the T/C [8] was 102 % of control and the T/C [9] was 111 % of control.

In the case of NC(=O)c1ccc(Cl)c(Cl)c1, the T/C [4] is reported as 103 % of control and the T/C [5] is reported as 103 % of control.

In the case of CS(=O)(=O)OCCn1c(=O)n(CCOS(C)(=O)=O)c(=O)n(CCOS(C)(=O)=O)c1=O, the T/C [10] is reported as 102 % of control, the T/C [11] is reported as 98 % of control and the T/C [12] is reported as 93 % of control.

In the case of O=C(O)C1CCN1C1CCCCC1 (configuration not stated), the T/C (endpoint: mean survival time, dose: 100.0 mg/kg/injection, schedule: Q01DX009 (ip), vehicle: saline) is reported as 98 % of control, the T/C [10] is reported as 103 % of control and the T/C (endpoint: mean survival time, dose: 200.0 mg/kg/injection, schedule: Q01DX009 (ip), vehicle: saline) is reported as 100 % of control. The T/C [11] was 103 % of control, the T/C (endpoint: mean survival time, dose: 400.0 mg/kg/injection, schedule: Q01DX009 (ip), vehicle: saline) was 98 % of control and the T/C [12] was 100 % of control.

With Cc1ccc(C)c(NC(=O)NCc2ccccc2)c1 the T/C [4] was 97 % of control and the T/C [5] was 106 % of control.

With O=C(N/N=C/c1ccccc1Cl)c1ccccc1 the T/C (endpoint: mean survival time, dose: 100.0 mg/kg/injection, schedule: Q01DX009 (ip), vehicle: Klucel (hydroxypropylcellulose) (HPC)) was 103 % of control, the T/C (endpoint: mean survival time, dose: 200.0 mg/kg/injection, schedule: Q01DX009 (ip), vehicle: Klucel (hydroxypropylcellulose) (HPC)) was 98 % of control and the T/C (endpoint: mean survival time, dose: 400.0 mg/kg/injection, schedule: Q01DX009 (ip), vehicle: Klucel (hydroxypropylcellulose) (HPC)) was 107 % of control.

In the case of O=C(NCCCCCCNC(=O)N1CC1)N1CC1, the T/C (endpoint: mean survival time, dose: 0.4 mg/kg/injection, schedule: Q01DX001 (ip), vehicle: saline) is reported as 109 % of control, the T/C (endpoint: mean survival time, dose: 0.8 mg/kg/injection, schedule: Q01DX001 (ip), vehicle: saline) is reported as 118 % of control and the T/C (endpoint: mean survival time, dose: 1.7 mg/kg/injection, schedule: Q01DX001 (ip), vehicle: saline) is reported as 114 % of control.

CC1(C)CCOC(CC(=O)OCc2ccccc2)=N1 was tested, and the T/C [4] was 96 % of control, the T/C [10] was 93 % of control and the T/C [5] was 96 % of control. For the same compound, the T/C [11] was 92 % of control, the T/C [6] was 95 % of control and the T/C [12] was 88 % of control.

In the case of CC(NC1=NCCO1)c1cccc2ccccc12 (configuration not stated), the T/C [10] is reported as 89 % of control.

In the case of CCCCOC(=O)c1ccccc1Cl, the T/C (endpoint: mean survival time, dose: 50.0 mg/kg/injection, schedule: Q04DX003 (ip), vehicle: Klucel (hydroxypropylcellulose) (HPC)) is reported as 94 % of control, the T/C (endpoint: mean survival time, dose: 100.0 mg/kg/injection, schedule: Q04DX003 (ip), vehicle: Klucel (hydroxypropylcellulose) (HPC)) is reported as 100 % of control and the T/C (endpoint: mean survival time, dose: 200.0 mg/kg/injection, schedule: Q04DX003 (ip), vehicle: Klucel (hydroxypropylcellulose) (HPC)) is reported as 102 % of control.

With CCCCCCCCSCC(CSCCCCCCCC)(CSCCCCCCCC)CSCCCCCCCC the T/C [1] was 101 % of control, the T/C [2] was 93 % of control and the T/C [3] was 93 % of control.

With CN(C)C(=S)[S][Sn]([CH3])([CH3])[CH3] the T/C (endpoint: mean survival time, dose: 0.39 mg/kg/injection, schedule: Q01DX009 (ip), vehicle: saline) was 115 % of control, the T/C (endpoint: mean survival time, dose: 0.78 mg/kg/injection, schedule: Q01DX009 (ip), vehicle: saline) was 107 % of control and the T/C (endpoint: mean survival time, dose: 1.56 mg/kg/injection, schedule: Q01DX009 (ip), vehicle: saline) was 95 % of control.

For CC(CN=Cc1ccccc1[NH-])N=Cc1ccccc1[NH-].[Ni+2] (configuration not stated), the T/C (endpoint: mean survival time, dose: 6.25 mg/kg/injection, schedule: Q04DX002 (ip), vehicle: saline with Tween-80) was 94 % of control, the T/C [7] was 94 % of control and the T/C [8] was 97 % of control. For the same compound, the T/C [9] was 94 % of control and 109 % of control.

With CN(C=O)NC(=O)N(CCCl)N=O the T/C (endpoint: median survival time, dose: 3.12 mg/kg/injection, schedule: Q01DX001 (ip), vehicle: saline) was 176 % of control and 200 % of control, the T/C (endpoint: median survival time, dose: 6.25 mg/kg/injection, schedule: Q01DX001 (ip), vehicle: saline) was 197 % of control and 312 % of control and the T/C (endpoint: median survival time, dose: 12.5 mg/kg/injection, schedule: Q01DX001 (ip), vehicle: saline) was 370 % of control and 375 % of control. For the same compound, the T/C (endpoint: median survival time, dose: 25.0 mg/kg/injection, schedule: Q01DX001 (ip), vehicle: saline) was 370 % of control and 375 % of control and the T/C (endpoint: median survival time, dose: 50.0 mg/kg/injection, schedule: Q01DX001 (ip), vehicle: saline) was 87 % of control.

For Cc1c2ccccc2cc2cc[n+]3ccccc3c12, the T/C (endpoint: mean survival time, dose: 10.0 mg/kg/injection, schedule: Q01DX009 (ip), vehicle: Klucel (hydroxypropylcellulose) (HPC)) was 92 % of control, the T/C (endpoint: mean survival time, dose: 20.0 mg/kg/injection, schedule: Q01DX009 (ip), vehicle: Klucel (hydroxypropylcellulose) (HPC)) was 103 % of control and the T/C (endpoint: mean survival time, dose: 40.0 mg/kg/injection, schedule: Q01DX009 (ip), vehicle: Klucel (hydroxypropylcellulose) (HPC)) was 92 % of control.

— PubChem BioAssay AID256 (DTP/NCI, 2004)
